Data taken from patent US6339093B1, “Isoquinoline derivatives” (Hoffmann-la Roche Inc., priority 1999, dated 2002).
Where a name gives a salt, the structure may show the parent alone.

Experiments:
[1] = target: T1, NMDA receptor (Rattus norvegicus, UniProt P35439+Q00960); test: 3H-[R-(R*,S*)]-a-(4-Hydroxy-phenyl)-b-methyl-4-(phenyl-methyl)-1-piperidine propanol binding (displacement, rat brain membranes); conditions: displacement of 5 nM 3H-radioligand, rat whole brain membranes minus cerebellum and medulla oblongata, 2 hours at 4° C.
T1 construct: Membranes were prepared by homogenization of the whole brain minus cerebellum and medulla oblongata; from tissue; host or cells: rat whole brain minus cerebellum and medulla oblongata, membranes
T1 sequence (Q00960 27-1482, other chains not shown): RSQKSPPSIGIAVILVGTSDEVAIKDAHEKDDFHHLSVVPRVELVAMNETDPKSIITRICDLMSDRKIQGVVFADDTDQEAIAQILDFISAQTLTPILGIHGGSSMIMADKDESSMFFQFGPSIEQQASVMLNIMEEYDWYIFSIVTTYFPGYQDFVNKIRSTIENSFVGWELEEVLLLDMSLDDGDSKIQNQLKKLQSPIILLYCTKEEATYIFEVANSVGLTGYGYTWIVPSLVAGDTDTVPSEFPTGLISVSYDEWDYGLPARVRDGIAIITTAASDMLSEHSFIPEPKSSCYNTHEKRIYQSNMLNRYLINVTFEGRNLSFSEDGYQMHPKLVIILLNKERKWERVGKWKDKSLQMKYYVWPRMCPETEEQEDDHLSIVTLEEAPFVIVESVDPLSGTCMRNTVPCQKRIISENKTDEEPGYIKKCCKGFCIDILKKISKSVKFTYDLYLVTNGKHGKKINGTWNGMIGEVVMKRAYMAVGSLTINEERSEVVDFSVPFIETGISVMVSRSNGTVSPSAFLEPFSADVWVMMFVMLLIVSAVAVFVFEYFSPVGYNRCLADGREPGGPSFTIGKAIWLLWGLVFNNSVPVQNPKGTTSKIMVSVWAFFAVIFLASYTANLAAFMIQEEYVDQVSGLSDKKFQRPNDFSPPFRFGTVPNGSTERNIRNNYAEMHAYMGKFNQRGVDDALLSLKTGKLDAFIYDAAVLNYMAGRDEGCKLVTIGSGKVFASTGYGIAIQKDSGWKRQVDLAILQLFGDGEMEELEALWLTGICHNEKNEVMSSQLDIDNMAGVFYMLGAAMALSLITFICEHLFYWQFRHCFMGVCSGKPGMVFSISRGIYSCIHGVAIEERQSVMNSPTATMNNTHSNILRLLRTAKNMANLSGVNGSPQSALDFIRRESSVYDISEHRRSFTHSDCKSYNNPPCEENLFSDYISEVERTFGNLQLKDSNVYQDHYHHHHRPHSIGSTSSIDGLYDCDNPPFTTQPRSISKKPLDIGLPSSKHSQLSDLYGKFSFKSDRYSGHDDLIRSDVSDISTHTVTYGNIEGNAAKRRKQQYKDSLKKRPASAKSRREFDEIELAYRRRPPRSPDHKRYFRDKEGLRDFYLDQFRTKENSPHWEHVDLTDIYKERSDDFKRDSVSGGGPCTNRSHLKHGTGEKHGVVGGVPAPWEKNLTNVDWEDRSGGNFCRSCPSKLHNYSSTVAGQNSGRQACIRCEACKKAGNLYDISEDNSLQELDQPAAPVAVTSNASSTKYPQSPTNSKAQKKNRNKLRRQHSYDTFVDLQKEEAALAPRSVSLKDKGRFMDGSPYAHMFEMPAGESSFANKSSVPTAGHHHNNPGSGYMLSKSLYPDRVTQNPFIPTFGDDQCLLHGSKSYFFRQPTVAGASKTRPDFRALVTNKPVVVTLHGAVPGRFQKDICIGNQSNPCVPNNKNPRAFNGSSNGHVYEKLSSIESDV
Procedure: ^3H-[R-(R*,S*)]-a-(4-Hydroxy-phenyl)-b-methyl-4-(phenyl-methyl)-1-piperidine propanol binding
Male Füllinsdorf albino rats weighing between 150-200 g were used. Membranes were prepared by homogenization of the whole brain minus cerebellum and medulla oblongata with a Polytron (10.000 rpm, 30 seconds), in 25 volume of a cold Tris-HCl 50 mM, EDTA 10 mM, pH 7.1 buffer. The homogenate was centrifuged at 48,000 g for 10 minutes at 4° C. The pellet was resuspended using the Polytron in the same volume of buffer and the homogenate was incubated at 37° C. for 10 minutes. After centrifugation the pellet was homogenized in the same buffer and frozen at −80° C. for at least 16 hours but not more than 10 days. For the binding assay the homogenate was thawed at 37° C., centrifuged and the pellet was washed three times as above in a Tris-HCl 5 mM, pH 7.5 cold buffer. The final pellet was resuspended in the same buffer and used at a final concentration of […] of protein/ml.
[R-(R*,S*)]-α-(4-Hydroxy-phenyl)-β-methyl-4-(phenyl-methyl)-1-piperidine propanol is a compound known to bind selectively to the NMDA receptor (J. Neurochem., Vol. 70., No. 5, 1998). ^3H-[R-(R*,S*)]-α-(4-Hydroxy-phenyl)-β-methyl-4-(phenyl-methyl)-1-piperidine propanol binding experiments were performed using a Tris-HCl 50 mM, pH 7.4 buffer. For displacement experiments 5 nM of 3H-[R-(R*,S*)]-a-(4-Hydroxy-phenyl)-b-methyl-4-(phenyl-methyl)-1-piperidine propanol were used and non specific binding was measured using 10 mM of tetrahydroisoquinoline and usually it accounts for 10% of the total. The incubation time was 2 hours at 4° C. and the assay was stopped by filtration on Whatmann GF/B glass fiber filters (Unifilter-96, Packard, Zürich, Switzerland). The filters were washed 5 times with cold buffer. The radioactivity on the filter was counted on a Packard Top-count microplate scintillation counter after addition of […] of microscint 40 (Canberra Packard S.A., Zürich, Switzerland).
The effects of compounds were measured using a minimum of 8 concentrations and repeated at least once. The pooled normalized values were analyzed using a non-linear regression calculation program which provide IC50 with their relative upper and lower 95% confidence limits.

Row | Compound | melting point | IC50 [1]
1 | COc1cccc2c(N3CCc4ccccc4C3)ccnc12.Cl | 240 °C | –
2 | Cc1cc(N2CCc3ccccc3C2)c2ccccc2n1.Cl | 210 to 211 °C | –
3 | Cl.Clc1ccc2c(c1)CN(c1ccnc3ccccc13)C2 | 270 to 275 °C | –
4 | Cl.c1ccc2c(c1)CN(c1ccnc3ccccc13)C2 | 264 to 267 °C | –
5 | Cl.c1ccc2c(c1)CCN(c1ccnc3ccccc13)C2 | 200 °C | –
6 | OCCNc1cc(N2CCc3ccccc3C2)c2ccccc2n1 [Example 2, 2-[4-(3,4-Dihydro-1H-isoquinolin-2-yl)-quinolin-2-ylamino]-ethanol hydrochloride] | – | 0.058 µM
7 | Cl.O[C@@H]1CCN(c2cc(N3CCc4ccccc4C3)c3ccccc3n2)C1 [Example 4, (R)-1-[4-(3,4-Dihydro-1H-isoquinolin-2-yl)-quinolin-2-yl]-pyrrolidin-3-ol hydrochloride] | 270 to 274 °C | 0.17 µM
8 | OC[C@H]1CCCN1c1cc(N2CCc3ccccc3C2)c2ccccc2n1 [Example 5, (R)-{1-[4-(3,4-Dihydro-1H-isoquinolin-2-yl)-quinolin-2-yl]-pyrrolidin-2-yl}-methanol] | 74 to 80 °C | 0.29 µM
9 | Cc1ccc2c(N3CCc4ccccc4C3)ccnc2c1.Cl [Example 13, 4-(3,4-Dihydro-1H-isoquinolin-2-yl)-7-methyl-quinoline hydrochloride] | 251 to 252 °C | 0.19 µM
10 | Clc1ccc2c(N3CCc4ccccc4C3)ccnc2c1 [Example 15, 7-Chloro-4-(3,4-dihydro-1H-isoquinolin-2-yl)-quinoline hydrochloride] | – | 0.32 µM
11 | Fc1cccc2c(N3CCc4ccccc4C3)ccnc12 [Example 16, 4-(3,4-Dihydro-1H-isoquinolin-2-yl)-8-fluoro-quinoline hydrochloride] | – | 0.65 µM
12 | Fc1ccc2nccc(N3CCc4ccccc4C3)c2c1 [Example 18, 4-(3,4-Dihydro-1H-isoquinolin-2-yl)-6-fluoro-quinoline hydrochloride] | – | 0.89 µM
